Experimental data published in patent US7132420B2, “Aspartic protease inhibitors” (The United States of America as represented by the …, priority 1999, dated 2006).
Like-named read-outs stand apart in the source and are kept apart here.

Tests used:
HIV-1 = experiment: HIV antiviral assay (EC50); format: cell-based
Text: The HIV protease assay was done according to the protocol described in Kageyama et al, Antimicrob. Agents Chemother., 37, 272 (1993). The HIV antiviral assay was done according to the protocol described in Weislow et al., J. National Cancer Inst. 81, 577 (1989).

normal cells = experiment: toxicity against normal cells (IC50); format: cell-based
Text: (§1) This example illustrates the HIV-1 protease inhibition activity (Ki), HIV-1 antiviral data (EC50), and the toxicity against normal cells (IC50), for particular compounds of formula (I). The HIV protease assay was done according to the protocol described in Kageyama et al, Antimicrob. Agents Chemother., 37, 272 (1993). The HIV antiviral assay was done according to the protocol described in Weislow et al., J. National Cancer Inst. 81, 577 (1989).

HIV-1 protease = HIV-1 protease (Human immunodeficiency virus type 1 group M subtype B, UniProt P04585); experiment: HIV protease assay (Ki); format: biochemical; conditions: for Ki: read-out: HIV-1 Ki
Text: as §1
(§2) The HIV protease assay was done according to the protocol described in Example 35. The plasmepsin II assay was done according to the protocol used in Silva et al., Proc. Nat. Acad. Sci. USA, 93, pp. 10034–10039, September 1996 (Biochemstry). The cathepsin D assay was done according to the protocol described in Gulnik et al., FEBS Letters, 413, 379–384 (1997). The compounds illustrated in Table 2 are of the general formula (II), as described in Example 35.

[1] = molecular target: 82F/84V mutant HIV-1 protease (Human immunodeficiency virus type 1 group M subtype B, UniProt P04585, I572V/V570F); format: biochemical
Text: as §1

Rat IV pharmacokinetics = format: in vivo, rats; conditions: IV about 5 mg/kg
Description: (§3) This example illustrates the oral bioavailability of various compounds of the present invention. […] Drug concentrations were measured by centrifuging plasma samples, extracting the supernatants with tert-butyl methyl ether, and analyzing the extracts by HPLC. Oral bioavailability (% F) was calculated on the basis of the ratio of the amount of drug absorbed systemically from oral administration (AUC p.o.) relative to the amount of systemic drug obtained from intravenous administration (AUC iv).

[2] = Rat P.O. pharmacokinetics and oral bioavailability; format: in vivo, rats; conditions: for Rat P.O. % F (%): AUC p.o. relative to AUC iv; for Cmax / Rat P.O. tmax: P.O. about 37 mg/kg, PEG 300 vehicle; for Cmax when administered orally, in words: oral
Description: as §3

plasmepsin II = plasmepsin II (Plasmodium falciparum, UniProt P46925); experiment: biochemical; format: biochemical; conditions: for Ki: Table 2, read-out: Pls II Ki
Text: as §2

[3] = molecular target: 84V mutant HIV-1 protease (Human immunodeficiency virus type 1 group M subtype B, UniProt P04585, I572V); experiment: HIV protease assay, 84V mutant (Ki); format: biochemical
Text: as §1

[4] = molecular target: 32I mutant HIV-1 protease (Human immunodeficiency virus type 1 group M subtype B, UniProt P04585, V520I); experiment: HIV protease assay, 32I mutant (Ki); format: biochemical; conditions: Table 1; read-out: 321 Ki
Text: as §1

cathepsin D = cathepsin D (Homo sapiens, UniProt P07339); experiment: cathepsin D assay (Ki); format: biochemical; conditions: Table 2; read-out: Cath D Ki
Text: as §2

[5] = IV-PO crossover oral bioavailability studies; format: in vivo; conditions: two Sprague-Dawley rats; IV 7 and 3 mg/kg (DMSO), oral 22 and 50 mg/kg (PEG300)
Description: Compound (19) was tested in IV-PO crossover studies in two Sprague-Dawley rats. For the IV portion of the studies, compound (19) was given at doses of 7 and 3 mg/kg, as a short infusion (30–60 seconds) via a jugular vein catheter using a vehicle of DMSO and a dose volume of 1 ml/kg. Heparinized blood samples were collected at close intervals through 3 hours, the plasma was separated, and plasma concentrations of compound (19) were determined by HPLC. One to two weeks later, the same rats were given doses of 22 and 50 mg/kg by gastric intubation. The vehicle was PEG300 and the dose volume was 10 ml/kg. Blood samples were collected at regular intervals through 24 hours, and analyzed as above. The oral bioavailability in both of these studies was 100%. Based on the excellent oral bioavailability of compound (19), it is expected that compound (19) will be an effective inhibitor of systemic aspartic protease when administered orally. Other compounds of the present invention also are expected to have-good oral bioavailability.

[6] = comparison of Table 2 Ki values

Chain of plasmepsin II (P46925 125-453): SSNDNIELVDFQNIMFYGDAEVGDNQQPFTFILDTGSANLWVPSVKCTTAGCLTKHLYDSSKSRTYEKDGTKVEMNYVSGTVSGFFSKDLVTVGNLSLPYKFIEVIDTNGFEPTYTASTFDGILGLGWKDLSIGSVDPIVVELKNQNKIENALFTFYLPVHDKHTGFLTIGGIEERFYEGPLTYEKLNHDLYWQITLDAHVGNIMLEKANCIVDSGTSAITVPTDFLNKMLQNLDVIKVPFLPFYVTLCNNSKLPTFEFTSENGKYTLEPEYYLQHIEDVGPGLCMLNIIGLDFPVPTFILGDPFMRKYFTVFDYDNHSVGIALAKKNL
Chain of cathepsin D (P07339 65-412): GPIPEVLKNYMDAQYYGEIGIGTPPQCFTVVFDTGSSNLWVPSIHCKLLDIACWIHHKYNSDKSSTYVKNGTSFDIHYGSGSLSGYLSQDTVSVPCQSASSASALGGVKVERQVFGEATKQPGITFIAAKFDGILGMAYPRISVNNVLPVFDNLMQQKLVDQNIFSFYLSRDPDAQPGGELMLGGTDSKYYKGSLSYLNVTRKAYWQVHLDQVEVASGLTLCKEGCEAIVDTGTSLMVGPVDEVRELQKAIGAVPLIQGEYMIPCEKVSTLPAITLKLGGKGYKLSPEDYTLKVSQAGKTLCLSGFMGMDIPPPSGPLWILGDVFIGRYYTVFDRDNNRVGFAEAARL

SMILES | EC50 (HIV-1; Table 1) [nM] | IC50 (normal cells; Table 1) [nM] | Ki (HIV-1 protease; Table 1) [nM] | Ki ([1]; Table 1) [nM] | EC50 (HIV-1; Table 3) [nM] | Rat IV CL (Rat IV pharmacokinetics) [mL/min/kg] | Rat IV t1/2 (Rat IV pharmacokinetics) [min] | Ki (HIV-1 protease; Table 3) [nM] | Cmax [2] [nM] | Rat P.O. tmax [2] [min] | further results
CCOC(=O)N[C@H](C(=O)N[C@@H](CC(C)C)C[C@H](O)[C@H](Cc1ccccc1)NC(=O)COc1c(C)cccc1C)C(C)C [(46)] | 160 | > 100000 | 0.054 | 0.671 | – | – | – | – | – | – | –
Cc1cccc(C)c1OCC(=O)N[C@@H](Cc1ccccc1)[C@@H](O)C[C@H](CC(C)C)NC(=O)[C@@H](NC(=O)N1CCOCC1)C(C)C [(45), (2S,3S,5S)-2-[N-[2-(2,6-dimethylphenoxy)acetyl]amino]-5-[N-[[N′-(morpholin-4)carbonyl]valinyl]amino]-3-hydroxy-7-methyl-1-phenyloctane] | 170 | > 100000 | 0.05 | 0.437 | 170 | 67.5 | 20 | 0.05 | 573 | 16 | Rat P.O. % F (%) [2]: 29%
Cc1cccc(C)c1OCC(=O)N[C@@H](Cc1ccccc1)[C@@H](O)C[C@H](CC(C)C)NC(=O)[C@H](C(C)C)N1CCCNC1=O [(16)] | 23 | – | 0.007 | 0.137 | 23 | 9.8 | 27 | 0.008 | 269 | 10 to 15 | EC50 (HIV-1; Table 2): 23 nM; IC50 (normal cells; Table 2): > 100000 nM; Ki (plasmepsin II): 357 nM; potency relative to compound (24) against plasmepsin II (plasmepsin II; [6]): about ten-fold more potent than compound (24); Ki ([3]; Table 1): 0.091 nM; Ki [4]: 0.031 nM; inhibitory activity against HIV-1 protease, in words (HIV-1 protease): excellent potency; Ki (HIV-1 protease; Table 2): 0.007 nM; potency relative to compound (24) against HIV-1 protease (HIV-1 protease; [6]): about ten-fold more potent than compound (24); Ki (cathepsin D): 3300 nM; Rat P.O. % F (%) [2]: 1%
CC(C)C[C@@H](C[C@H](O)[C@H](Cc1ccccc1)NC(=O)c1ccccc1NC(=O)OCc1ccccn1)NC(=O)c1ccccc1NC(=O)OCc1ccccn1 [(21)] | 127 | > 20000 | 0.14 | – | – | – | – | – | – | – | Ki ([3]; Table 1, in nM): 2.7 nM
Cc1cccc(C)c1OCC(=O)N[C@@H](Cc1ccccc1)[C@@H](O)C[C@H](CC(C)C)NC(=O)O[C@H]1CCOC1 [(26)] | 700 | – | 0.06 | – | – | – | – | – | – | – | EC50 (HIV-1; Table 2): 700 nM; IC50 (normal cells; Table 2): > 100000 nM; Ki (plasmepsin II): 55 nM; Ki (HIV-1 protease; Table 2): 0.06 nM; Ki (cathepsin D): 3.5 nM; Ki ([1]; Table 1, in nM): 2.7 nM
CC(C)C[C@@H](C[C@H](O)[C@H](Cc1ccccc1)NC(=O)OCc1cncs1)NC(=O)[C@H](C(C)C)N1CCCNC1=O [Compound (19), (2S,3S,5S)-5-[N-[[3-methyl-2S-(2-oxo-tetrahydropyrimidin-1-yl)]butyryl]amino]-2-[N-[(thiazol-5-yl-methoxy)carbonyl]amino]-3-hydroxy-7-methyl-1-phenyloctane] | 500 | > 100000 | 0.07 ± 0.01 | – | 500 | 25 | 18 | 0.07 | 24800 | 120 to 360 | oral bioavailability [5]: 100%; Cmax when administered orally, in words [2]: micromolar
CC(C)C[C@@H](C[C@H](O)[C@H](Cc1ccccc1)NC(=O)O[C@H]1CCOC1)NC(=O)[C@H](C(C)C)N1CCCNC1=O [(35), (2S,3S,5S)-2-[N-(3S-terahydrofuranyloxycarbonyl]amino]-5-[N-[[3-methyl-2S-(2-oxo-tetrahydropyrimidin-1-yl)]butyryl]amino]-3-hydroxy-7-methyl-1-phenyloctane] | 700 | > 100000 | 0.094 ± 0.024 | – | – | – | – | – | – | – | Ki ([1]; Table 1, in nM): 3.2 nM
Cc1ccccc1C(=O)N[C@@H](Cc1ccccc1)[C@@H](O)C[C@H](CC(C)C)NC(=O)OC(C)(C)C [(38)] | – | – | – | – | – | – | – | – | – | – | Ki ([3]; Table 1, in nM): 12 nM; Ki (HIV-1 protease; Table 1, in nM): 2.1 nM
Cc1cccc(C)c1OCC(=O)N[C@@H](Cc1ccccc1)[C@@H](O)C[C@H](CC(C)C)NC(=O)[C@@H](NC(=O)OCc1ccccn1)C(C)C [(30), (2S,3S,5S)-2-[N-[2-(2,6-dimethylphenoxy)acetyl]amino]-5-[N-[N′-(pyridine-2-methoxycarbonyl)valinyl]amino]-3-hydroxy-7-methyl-1-phenyloctane] | 83 | > 100000 | 0.017 | 0.41 | – | – | – | – | – | – | EC50 (HIV-1; Table 2): 83 nM; IC50 (normal cells; Table 2): > 100000 nM; Ki (plasmepsin II): 2350 nM; Ki (HIV-1 protease; Table 2): 0.017 nM; Ki (cathepsin D): 3300 nM
Cc1cccc(C)c1OCC(=O)N[C@@H](CC(C)C)C[C@H](O)[C@H](Cc1ccccc1)NC(=O)[C@H](C(C)C)N1CCCNC1=O [(43)] | 540 | > 100000 | 0.176 | – | 540 | 36.6 | 28 | 0.176 | 2100 | 120 | Cmax when administered orally, in words [2]: micromolar
CC(C)[C@H](NC(=O)OCc1ccccn1)C(=O)N[C@@H](Cc1ccccc1)C[C@H](O)[C@H](Cc1ccccc1)NC(=O)[C@@H](NC(=O)OCc1ccccn1)C(C)C [(22), reference compound] | – | – | 0.015 | 0.271 | – | – | – | – | – | – | Ki ([3]; Table 1): 0.21 nM
